Experimental data published in ChEMBL document CHEMBL5053504, “Potent Inhibition of HIF1α and p300 Interaction by a Constrained Peptide Derived from CITED2” (J Med Chem, 2021).
Values belong to the compound of their own block, whether it stands above or below them. Active and inactive are the calls of the source. No cut-off for these calls is given here. Where a SMILES comes first, the peptide text is derived from it.

How the values were obtained:
[1] = target: T1, CREB-binding protein/Histone acetyltransferase p300 (Homo sapiens, UniProt Q09472+Q92793); assay: Binding affinity to His-tagged human CH1 domain of p300 (323 to 423 residues)expressed in Escherichia coli Rosetta (DE3)/CBP (unknown origin) by fluorescence polarization assay
T1 sequence (Q09472 whole entry, looked up, the tested form may be a part): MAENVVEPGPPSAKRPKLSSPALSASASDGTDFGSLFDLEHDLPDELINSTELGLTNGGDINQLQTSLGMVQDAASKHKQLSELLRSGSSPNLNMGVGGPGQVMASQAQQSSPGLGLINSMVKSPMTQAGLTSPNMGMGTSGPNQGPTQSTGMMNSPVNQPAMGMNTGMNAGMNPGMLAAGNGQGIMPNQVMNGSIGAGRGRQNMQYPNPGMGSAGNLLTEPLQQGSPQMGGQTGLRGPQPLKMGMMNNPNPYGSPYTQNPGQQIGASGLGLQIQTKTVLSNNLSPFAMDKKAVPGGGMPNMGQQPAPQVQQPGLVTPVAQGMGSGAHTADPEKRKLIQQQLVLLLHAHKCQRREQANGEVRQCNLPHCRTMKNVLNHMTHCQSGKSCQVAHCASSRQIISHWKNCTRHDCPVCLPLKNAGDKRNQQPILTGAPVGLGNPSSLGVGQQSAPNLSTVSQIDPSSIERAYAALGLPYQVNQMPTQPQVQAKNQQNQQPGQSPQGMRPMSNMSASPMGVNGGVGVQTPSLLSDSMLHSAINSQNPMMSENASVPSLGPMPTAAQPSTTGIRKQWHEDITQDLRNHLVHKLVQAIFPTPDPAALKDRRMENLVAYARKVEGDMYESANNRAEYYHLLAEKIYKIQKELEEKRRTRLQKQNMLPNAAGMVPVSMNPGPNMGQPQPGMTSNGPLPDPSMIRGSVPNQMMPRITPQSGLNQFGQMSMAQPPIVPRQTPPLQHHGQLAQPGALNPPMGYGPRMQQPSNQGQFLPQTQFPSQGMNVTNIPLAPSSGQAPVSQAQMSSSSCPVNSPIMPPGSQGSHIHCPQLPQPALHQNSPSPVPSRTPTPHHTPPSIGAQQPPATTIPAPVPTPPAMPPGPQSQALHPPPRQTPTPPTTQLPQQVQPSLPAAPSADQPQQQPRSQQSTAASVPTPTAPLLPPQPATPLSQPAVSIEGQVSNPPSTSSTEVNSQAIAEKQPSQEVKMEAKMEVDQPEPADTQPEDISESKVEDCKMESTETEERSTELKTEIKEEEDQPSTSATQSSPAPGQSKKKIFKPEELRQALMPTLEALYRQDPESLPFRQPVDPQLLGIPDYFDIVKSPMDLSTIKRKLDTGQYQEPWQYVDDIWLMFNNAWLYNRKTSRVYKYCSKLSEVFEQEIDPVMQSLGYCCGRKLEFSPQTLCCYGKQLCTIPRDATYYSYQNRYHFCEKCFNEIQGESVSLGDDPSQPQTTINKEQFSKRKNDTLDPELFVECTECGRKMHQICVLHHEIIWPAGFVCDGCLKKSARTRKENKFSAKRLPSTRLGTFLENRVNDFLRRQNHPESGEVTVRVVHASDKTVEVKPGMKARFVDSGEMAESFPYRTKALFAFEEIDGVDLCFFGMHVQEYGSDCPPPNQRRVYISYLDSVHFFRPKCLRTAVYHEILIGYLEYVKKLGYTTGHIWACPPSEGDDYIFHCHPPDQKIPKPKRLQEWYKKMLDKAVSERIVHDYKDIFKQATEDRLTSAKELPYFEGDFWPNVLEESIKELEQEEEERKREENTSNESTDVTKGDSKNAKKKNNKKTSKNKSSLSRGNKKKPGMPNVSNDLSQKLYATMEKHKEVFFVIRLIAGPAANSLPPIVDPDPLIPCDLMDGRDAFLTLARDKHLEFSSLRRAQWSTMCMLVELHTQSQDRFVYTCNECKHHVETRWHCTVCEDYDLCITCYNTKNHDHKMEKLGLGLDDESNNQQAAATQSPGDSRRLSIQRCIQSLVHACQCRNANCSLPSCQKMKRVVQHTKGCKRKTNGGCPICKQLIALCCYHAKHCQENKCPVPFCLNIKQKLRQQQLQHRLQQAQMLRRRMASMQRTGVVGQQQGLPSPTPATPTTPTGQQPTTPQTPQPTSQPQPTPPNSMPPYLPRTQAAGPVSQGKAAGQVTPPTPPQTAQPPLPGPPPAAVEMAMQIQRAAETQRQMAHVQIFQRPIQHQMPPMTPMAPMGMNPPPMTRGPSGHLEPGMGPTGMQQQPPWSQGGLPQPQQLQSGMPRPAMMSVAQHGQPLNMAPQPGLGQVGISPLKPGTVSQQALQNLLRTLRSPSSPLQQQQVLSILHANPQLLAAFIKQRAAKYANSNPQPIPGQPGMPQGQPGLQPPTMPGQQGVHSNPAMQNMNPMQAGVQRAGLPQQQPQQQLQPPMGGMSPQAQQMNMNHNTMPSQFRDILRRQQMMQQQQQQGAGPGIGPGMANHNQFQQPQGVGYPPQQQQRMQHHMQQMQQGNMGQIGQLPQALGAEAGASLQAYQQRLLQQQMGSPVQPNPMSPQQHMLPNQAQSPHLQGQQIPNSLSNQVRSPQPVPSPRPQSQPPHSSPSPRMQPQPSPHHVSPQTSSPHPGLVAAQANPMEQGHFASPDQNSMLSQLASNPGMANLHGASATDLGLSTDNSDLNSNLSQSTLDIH
T1 sequence (Q92793 whole entry, looked up, the tested form may be a part): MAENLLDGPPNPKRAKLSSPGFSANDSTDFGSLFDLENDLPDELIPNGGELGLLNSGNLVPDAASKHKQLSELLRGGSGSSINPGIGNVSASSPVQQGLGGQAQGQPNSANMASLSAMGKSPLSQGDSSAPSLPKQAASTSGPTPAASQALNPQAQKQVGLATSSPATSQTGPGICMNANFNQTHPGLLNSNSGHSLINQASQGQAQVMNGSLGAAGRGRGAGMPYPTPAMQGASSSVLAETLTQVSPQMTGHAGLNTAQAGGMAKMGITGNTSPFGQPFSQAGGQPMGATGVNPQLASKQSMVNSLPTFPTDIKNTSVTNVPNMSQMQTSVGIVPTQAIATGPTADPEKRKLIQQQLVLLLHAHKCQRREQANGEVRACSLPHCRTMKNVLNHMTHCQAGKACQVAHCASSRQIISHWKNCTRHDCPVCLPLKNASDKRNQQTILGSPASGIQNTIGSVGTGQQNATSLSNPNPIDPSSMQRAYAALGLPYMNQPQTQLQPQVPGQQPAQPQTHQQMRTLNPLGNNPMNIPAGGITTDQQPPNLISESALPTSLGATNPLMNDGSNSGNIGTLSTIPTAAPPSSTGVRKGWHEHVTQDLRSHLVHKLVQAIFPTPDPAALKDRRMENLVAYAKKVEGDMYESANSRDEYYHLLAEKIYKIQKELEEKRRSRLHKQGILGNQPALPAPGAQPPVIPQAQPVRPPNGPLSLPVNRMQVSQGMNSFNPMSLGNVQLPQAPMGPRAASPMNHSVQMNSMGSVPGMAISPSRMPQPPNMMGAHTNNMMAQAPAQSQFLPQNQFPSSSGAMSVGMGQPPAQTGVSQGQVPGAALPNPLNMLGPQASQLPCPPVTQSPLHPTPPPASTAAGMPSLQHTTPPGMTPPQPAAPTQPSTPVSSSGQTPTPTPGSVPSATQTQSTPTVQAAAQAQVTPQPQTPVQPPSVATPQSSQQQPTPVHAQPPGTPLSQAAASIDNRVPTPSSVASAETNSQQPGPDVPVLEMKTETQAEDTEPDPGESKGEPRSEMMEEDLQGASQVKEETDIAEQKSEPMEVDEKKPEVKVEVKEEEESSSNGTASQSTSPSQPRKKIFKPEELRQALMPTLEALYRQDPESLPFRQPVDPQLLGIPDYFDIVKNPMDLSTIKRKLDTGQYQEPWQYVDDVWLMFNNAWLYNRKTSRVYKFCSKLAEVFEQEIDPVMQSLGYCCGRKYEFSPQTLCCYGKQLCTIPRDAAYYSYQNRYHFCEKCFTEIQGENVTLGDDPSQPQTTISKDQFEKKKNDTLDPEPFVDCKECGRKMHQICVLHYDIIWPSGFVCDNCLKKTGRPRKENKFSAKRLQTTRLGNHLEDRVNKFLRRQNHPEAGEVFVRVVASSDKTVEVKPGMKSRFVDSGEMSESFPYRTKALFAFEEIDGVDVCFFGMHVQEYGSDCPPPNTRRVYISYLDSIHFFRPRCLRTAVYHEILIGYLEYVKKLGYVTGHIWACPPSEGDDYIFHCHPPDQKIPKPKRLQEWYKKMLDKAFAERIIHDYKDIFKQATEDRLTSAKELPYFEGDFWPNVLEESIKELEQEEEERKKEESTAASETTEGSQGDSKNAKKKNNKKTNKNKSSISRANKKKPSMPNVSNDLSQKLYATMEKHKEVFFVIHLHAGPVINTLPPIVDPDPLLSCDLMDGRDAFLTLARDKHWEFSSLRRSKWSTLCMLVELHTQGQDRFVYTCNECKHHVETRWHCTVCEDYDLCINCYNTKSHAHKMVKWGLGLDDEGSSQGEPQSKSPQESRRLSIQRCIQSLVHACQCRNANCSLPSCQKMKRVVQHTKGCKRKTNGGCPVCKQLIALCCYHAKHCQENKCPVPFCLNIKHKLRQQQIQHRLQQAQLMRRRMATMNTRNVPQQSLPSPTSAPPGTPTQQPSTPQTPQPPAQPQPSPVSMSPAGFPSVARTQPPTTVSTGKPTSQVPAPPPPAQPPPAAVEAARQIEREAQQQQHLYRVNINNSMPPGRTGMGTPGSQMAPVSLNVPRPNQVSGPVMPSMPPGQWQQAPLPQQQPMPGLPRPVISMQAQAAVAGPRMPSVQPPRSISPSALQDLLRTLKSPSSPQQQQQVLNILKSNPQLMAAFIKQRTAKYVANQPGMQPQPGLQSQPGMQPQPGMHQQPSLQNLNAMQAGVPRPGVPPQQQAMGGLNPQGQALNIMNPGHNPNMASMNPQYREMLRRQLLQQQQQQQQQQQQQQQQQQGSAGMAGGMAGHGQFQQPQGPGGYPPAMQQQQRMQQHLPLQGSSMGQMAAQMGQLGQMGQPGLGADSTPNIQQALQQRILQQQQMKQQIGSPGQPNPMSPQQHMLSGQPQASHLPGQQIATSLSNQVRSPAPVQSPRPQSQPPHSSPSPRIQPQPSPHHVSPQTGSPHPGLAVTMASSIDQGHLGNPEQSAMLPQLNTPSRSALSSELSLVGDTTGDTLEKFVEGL

HeLa [2] = assay: Downregulation of VEGF protein expression in human HeLa cells at 25 uM measured after 24 hrs under hypoxia condition by Western blot analysis; assay type: functional, cell-based
HeLa [3] = assay: Downregulation of HK1 mRNA expression in human HeLa cells at 25 uM measured after 24 hrs under hypoxia condition by RT-PCR analysis; assay type: functional, cell-based
HeLa [4] = assay: Downregulation of GLUT1 mRNA expression in human HeLa cells at 25 uM measured after 24 hrs under hypoxia condition by RT-PCR analysis; assay type: functional, cell-based
[5] = target: T2, HIF1A/p300/CREB-binding protein (Homo sapiens) (UniProt Q09472+Q16665+Q92793); assay: Inhibition of hypoxia-induced HIF1alpha/P300-CBP interaction in human HeLa cells at 10 uM measured after 24 hrs by co-immunoprecipiation assay; assay type: cell-based
HeLa [6] = assay: Downregulation of VEGF mRNA expression in human HeLa cells at 25 uM measured after 24 hrs under hypoxia condition by RT-PCR analysis; assay type: functional, cell-based
[7] = target: T2, HIF1A/p300/CREB-binding protein (Homo sapiens); assay: Inhibition of hypoxia-induced HIF1alpha/P300-CBP interaction mediated gene transcriptional activity in human HeLa cells co-transfected with luciferase reporter plasmid containing HRE and pRL-CMV vector at 25 uM incubated for 24 hrs under hypoxic condition by HRE-dependent dual luciferase reporter gene assay; assay type: cell-based
MDA-MB-231 = assay: Cytotoxicity against human MDA-MB-231 cells assessed as cell growth inhibition measured after 24 hrs by MTT assay; assay type: functional, cell-based
HeLa [8] = assay: Downregulation of HK1 protein expression in human HeLa cells at 25 uM measured after 24 hrs under hypoxia condition by Western blot analysis; assay type: functional, cell-based
A549 = assay: Cytotoxicity against human A549 cells assessed as cell growth inhibition measured after 24 hrs by MTT assay; assay type: functional, cell-based
[9] = target: T2, HIF1A/p300/CREB-binding protein (Homo sapiens); assay: Inhibition of HA-tagged CTAD (786 to 826 residues) HIF1alpha/Flag-tagged P300 CH1 domain (323 to 423 residues)/CBP (unknown origin) interaction expressed in HEK293T cells measured after 24 hrs by co-iimunoprecipitation assay; assay type: cell-based
HeLa [10] = assay: Downregulation of GLUT1 protein expression in human HeLa cells at 25 uM measured after 24 hrs under hypoxia condition by Western blot analysis; assay type: functional, cell-based
HeLa [11] = assay: Cytotoxicity against human HeLa cells assessed as cell growth inhibition measured after 24 hrs by MTT assay; assay type: functional, cell-based
[12] = Stability of the compound in mouse serum by LC/MS analysis; assay type: ADME, cell-free
HeLa [13] = assay: Cytotoxicity against human HeLa cells assessed as reduction in cell viability measured after 24 hrs under hypoxia condition by MTT assay; assay type: functional, cell-based
[14] = target: T1, CREB-binding protein/Histone acetyltransferase p300; assay: Binding affinity to p300/CBP in hypoxia-induced human HeLa cells assessed as p300/CBP pull down at 25 uM measured after 12 hrs pulldown-based Western blot analysis
[15] = Drug uptake in human HeLa cells measured after 4 hrs by tryphan blue staining based flow cytometry; assay type: ADME, cell-based
HeLa [16] = assay: Cytotoxicity against human HeLa cells assessed as cell membrane disruption measured after 4 hrs under hypoxia condition by LDH assay; assay type: functional, cell-based

Compound: CC[C@H](C)[C@H](NC(=O)[C@H](CCCNC(=N)N)NC(=O)[C@H](CC(=O)O)NC(=O)[C@H](CC(C)C)NC(=O)CNC(=O)[C@H](CCSC)NC(=O)[C@H](CCC(=O)O)NC(=O)[C@@H](NC(=O)[C@@H](NC(=O)[C@H](CC(C)C)NC(=O)[C@H](CO)NC(=O)[C@H](CCSC)NC(=O)[C@H](CC(C)C)NC(=O)[C@@H](NC(=O)[C@H]1CNC(=O)[C@@H](N)CC(=O)N[C@@H](CC(=O)O)C(=O)N[C@@H](CCC(=O)O)C(=O)N1)C(C)C)C(C)C)[C@@H](C)CC)C(=O)N[C@@H](CCCCN)C(=O)N[C@@H](CCC(=O)O)C(=O)N[C@@H](CC(C)C)C(=O)N1CCC[C@H]1C(=O)N[C@@H](CCC(=O)O)C(=O)N[C@@H](CC(C)C)C(N)=O
- Kd [1]: 33.7 nM

Compound: CC[C@H](C)[C@H](NC(=O)[C@@H]1CNC(=O)[C@@H](N)CC(=O)N[C@@H](CC(=O)O)C(=O)N[C@@H](CCC(=O)O)C(=O)N1)C(=O)N[C@@H](CC(C)C)C(=O)N[C@@H](CCSC)C(=O)N[C@@H](CO)C(=O)N[C@@H](CC(C)C)C(=O)N[C@H](C(=O)N[C@H](C(=O)N[C@@H](CCC(=O)O)C(=O)N[C@@H](CCSC)C(=O)NCC(=O)N[C@@H](CC(C)C)C(=O)N[C@@H](CC(=O)O)C(=O)N[C@@H](CCCNC(=N)N)C(=O)N[C@@H](Cc1c[nH]c2ccccc12)C(=O)N[C@@H](CCCCN)C(=O)N[C@@H](CCC(=O)O)C(=O)N[C@@H](CC(C)C)C(=O)N1CCC[C@H]1C(=O)N[C@@H](CCC(=O)O)C(=O)N[C@@H](CC(C)C)C(N)=O)[C@@H](C)CC)C(C)C (HELM PEPTIDE1{D.E.[O=C([C@H](CN[*:3])N[*:1])[*:2]].I.L.M.S.L.V.I.E.M.G.L.D.R.W.K.E.L.P.E.L.[am]}|CHEM1{[N[C@@H](CC(=O)[*:1])C(=O)[*:2]]}$PEPTIDE1,CHEM1,1:R1-1:R1|PEPTIDE1,CHEM1,3:R3-1:R2$$$V2.0)
- Activity (HeLa [2]): Active
- Activity (HeLa [3]): Active
- Activity (HeLa [4]): Active
- inhibition [5]: Active
- Activity (HeLa [6]): Active
- inhibition [7]: Active
- growth inhibition (GI) (MDA-MB-231): Active
- Activity (HeLa [8]): Active
- Activity (A549): Active
- inhibition [9]: Active
- Activity (HeLa [10]): Active
- growth inhibition (GI) (HeLa [11]): Active
- Stability [12]: Stable
- Kd [1]: 21.4 nM
- growth inhibition (GI) (HeLa [13]): Active
- Activity [14]: Active

Compound: H-DEEILMSLVIEMGLDRIKELPEL-OH
- Drug uptake [15]: Active

Compound: H-DEEILMSLVIEMGLDRWKELPEL-OH
- Activity (HeLa [16]): Active
- Stability [12]: Stable
- Kd [1]: 22.3 nM
- Activity [14]: Active

Compound: H-DEEILWSLVIEMGLDRIKELPEL-OH
- Activity (HeLa [16]): Active
- Kd [1]: 32 nM

Compound: H-DEEVLMSLVIEM-OH
- Kd [1]: 228.2 nM

Compound: H-DEEVLMSLVIEMGLDRWKELPEL-OH
- Drug uptake [15]: Active

Compound: H-DEEVLWSLVIEMGLDRIKELPEL-OH
- Drug uptake [15]: Active

Continued, values first:

- Kd [1]: 29.5 nM
Compound: H-DEEILWSLVIEMGLDRWKELPEL-OH

- Kd [1]: 37.1 nM
Compound: H-DEEVLMSLVIEMGLDRIKELPEL-OH

- Kd [1]: 17.7 nM
Compound: H-DEEVLMSLVIEMGLDRIKELPELWLGQNEFDFMTDF-OH

- Kd [1]: 36.2 nM
Compound: H-DEEVLWSLVIEMGLDRWKELPEL-OH

- Kd [1]: 1544 nM
Compound: H-GLDRIKELPELWLG-OH

- Kd [1]: 226 nM
Compound: H-LPELWLGQNEFDFMTDF-OH

- Kd [1]: 312.5 nM
Compound: H-QNEFDFMTDF-OH
